PubChem BioAssay (NCI)
Several values for one entry are separate records, joined by “and”; a condition that tells them apart may be missing. Equal entries are not always repeated.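 In this assay, cells in 96-well plates receive the compound at five concentrations for 48 hours. Endpoints are linearly interpolated between the surrounding concentrations. At the GI50, growth is halved. TGI denotes the concentration required for complete inhibition of growth.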

How the values were obtained:
Assay in all cases: DTP human tumour cell line panel, 48 h
[1] = system: HS 578T breast
[2] = system: NCI-H226 lung
[3] = system: RPMI-8226 leukemia
[4] = system: CCRF-CEM leukemia
[5] = system: T-47D breast
[6] = system: CAKI-1 renal
[7] = system: NCI-H23 lung
[8] = system: MOLT-4 leukemia
[9] = system: SN12C renal
[10] = system: IGROV1 ovarian

SMILES | TGI [1] | TGI [2] | TGI [3] | TGI [4] | TGI [5] | TGI [6] | TGI [7] | TGI [8] | TGI [9] | TGI [10] | GI50 [1] | GI50 [2] | GI50 [3] | GI50 [4] | GI50 [5] | GI50 [6] | GI50 [7] | GI50 [8] | GI50 [9] | GI50 [10]
C=CC(COC(=O)C(C)(C)OC(C)=O)c1ccc(OC(=O)C(C)C)c(OC)c1 (configuration not stated) | 50.8 µM | 49.9 µM | > 100 µM | > 22 µM | > 37.2 µM | 4.07 µM | 39.3 µM | 20.6 µM | > 37 µM | 34.3 µM |  |  |  |  |  |  |  |  |  | 
Cc1ccc(S(=O)(=O)OCC#CCOS(=O)(=O)c2ccc(C)cc2)cc1 | 14.2 µM | 12.9 µM | 4.42 µM | 5.79 µM | 4.26 µM | 1.5 µM | 5.04 µM | 7.81 µM | 17.3 µM | 2.86 µM | 2.75 µM | 5.83 µM | 1.85 µM | 1.96 µM | 1.94 µM | 0.512 µM | 1.99 µM | 2.39 µM | 3.89 µM | 0.992 µM
CCN(CC)c1c(-c2ccccc2)n[nH]c1C(=O)OC | 49.4 µM | 38.5 µM | 38.4 µM | 71 µM | 64.8 µM | 55.5 µM | > 100 µM | 58.2 µM | 40.3 µM | > 100 µM | 17 µM | 16.9 µM | 14.6 µM | 22.8 µM | 17.5 µM | 25.8 µM | 42.4 µM | 18.6 µM | 24.4 µM | 50.8 µM
N#Cc1ccc(-c2c(-c3ncn[nH]3)sc(N3CCOCC3)c2C#N)c(F)c1 | 4.85 µM | 86.3 µM | 48.6 µM | > 100 µM | 0.522 µM | 15.6 µM | > 100 µM | 27.6 µM | > 100 µM | 0.948 µM | 0.381 µM | 1.83 µM | 4.5 µM | 3.88 µM | 0.0391 µM | 0.432 µM | 3.32 µM | 0.484 µM | 0.835 µM | 0.181 µM
O=[N+]([O-])c1cccc(-c2nc(-c3ccc(Cl)cc3Cl)cn2-c2ccccc2)c1 | 1.15 µM | > 33.3 µM | 1.79 µM | > 18.7 µM | 2.9 µM | 1.21 µM | > 27.1 µM | > 33.3 µM | > 7.91 µM | 3.86 µM | 0.428 µM | 3.17 µM | 0.00546 µM |  | 0.922 µM | 0.477 µM | 5.15 µM | 3.21 µM | 1.19 µM | 1.2 µM
CNCC/C=C1\c2cc3c(cc2-c2c1c1cc(OC)c(OC)cc1c(=O)n2C)OCO3 | 38.9 µM | 2.11 µM |  |  | 25.5 µM | 5.92 µM | 7.75 µM |  | 6.06 µM |  | 8.88 µM | 0.232 µM | 0.149 µM | < 0.01 µM | 4.19 µM | 0.278 µM | 1.33 µM | < 0.01 µM | 0.207 µM | < 0.0505 µM
C/C=C/C/C=C/[C@H](C)C[C@H](O)[C@@H]1C[C@@H]2O[C@H]2/C=C/[C@@H]2OC(C)(C)O[C@H]2/C=C/C[C@H](C)CC(=O)O1 | > 100 µM | > 100 µM | 37 µM | 56.4 µM | 8.53 µM | 31.1 µM | > 100 µM | 37.4 µM | > 100 µM | > 100 µM | 5.22 µM | 6.08 µM | 3.16 µM | 2.78 µM | 2.18 µM | 2.9 µM | 6.08 µM | 3.94 µM | 5.23 µM | 10.5 µM
CCOC(=O)Nc1nc2ccccc2[nH]1 | > 100 µM | > 100 µM | > 100 µM | > 100 µM | > 100 µM | > 100 µM | > 100 µM | > 100 µM | > 100 µM | > 100 µM | 4.3 µM and 3.48 µM |  | 4.13 µM and 2.26 µM | 3.6 µM and 4.41 µM | 5.76 µM and 4.62 µM | 3.84 µM and 3.73 µM | 8.17 µM and > 21.9 µM | 4.57 µM and 5 µM |  | > 26.6 µM and 4.1 µM
Cc1cc(C(=O)Nc2n[nH]c3ccccc23)n[nH]1 | > 100 µM | > 100 µM | > 100 µM | > 100 µM | > 100 µM | > 100 µM | > 100 µM | > 100 µM | > 100 µM | > 100 µM | > 100 µM | > 100 µM | > 100 µM | > 100 µM | > 100 µM | 90.5 µM | > 100 µM | > 100 µM | > 100 µM | 32.7 µM
CN1CCN(c2ccc(OC(F)(F)F)c(Nc3ncc4c(n3)-c3c(c(C(N)=O)nn3CCO)CC4)c2)CC1 | 18.5 µM and > 5 µM | 50.4 µM and > 10 µM | 35 µM and > 10 µM | 28.5 µM | 40.8 µM and > 10 µM | > 44.8 µM | 17.6 µM and > 10 µM | 18.5 µM and > 10 µM | 20.7 µM and > 10 µM | 46.6 µM and > 10 µM | 0.164 µM and 0.184 µM | 4.26 µM and 1.21 µM | 0.774 µM and 0.324 µM | 0.0197 µM and 0.0283 µM | 0.944 µM and 0.538 µM | 0.584 µM and 0.831 µM | 0.0397 µM and 0.0732 µM | 0.0349 µM and 0.0615 µM | 1.13 µM and 0.721 µM | 
O=C(Nc1cccc(-n2cc(-c3ccncc3)c(-c3ccc(O)c(Cl)c3)n2)c1)c1ccc2c(c1)OCCO2 | > 100 µM | > 100 µM | > 100 µM | > 100 µM | > 100 µM | > 100 µM | > 100 µM | > 100 µM | > 100 µM | > 100 µM | 6.01 µM | 12.2 µM | 2.19 µM | 3.75 µM | 3.44 µM | 6.34 µM | > 100 µM | 4.88 µM | 55.7 µM | > 100 µM
COc1cccc(-c2nn(-c3ccccc3)cc2-c2ccnc(NCCCNC(=O)c3cccc(C(F)(F)F)c3)c2)c1 | 36.9 µM | 10.7 µM | 11.5 µM | > 100 µM | 8.4 µM | 32.5 µM | 24.2 µM | 9.35 µM | 38.5 µM | 32 µM | 5.6 µM | 2.24 µM | 2.64 µM | 6.11 µM | 2.33 µM | 6.27 µM | 4.49 µM | 2.63 µM | 6.06 µM | 7.59 µM
Cc1ccc(C(=O)c2sc3nc4c(cc3c2N)CCCC4)c(C)c1 | > 100 µM | > 100 µM | 6.97 µM | > 100 µM | > 69.8 µM | > 100 µM | > 100 µM | > 100 µM | > 100 µM | > 100 µM | 0.415 µM | 2.67 µM | 0.406 µM | 0.311 µM | 0.45 µM | 0.361 µM | 0.776 µM | 0.563 µM | 0.841 µM | 1.23 µM
CC1=C(/C=C/C(=O)CC(=O)/C=C/C2=C(C)CCCC2(C)C)C(C)(C)CCC1 | 68.4 µM | > 100 µM | 40.8 µM | 31 µM | > 100 µM | > 100 µM | > 100 µM | 32.6 µM | > 100 µM | 88.5 µM | 14.7 µM | 23.3 µM | 14.9 µM | 5.22 µM | 41.5 µM | 19.1 µM | 24.9 µM | 6.51 µM | 40.3 µM | 21 µM
COc1cc(-n2cc(-c3ccccc3)[nH]c2=O)cc(OC)c1OC | 85.4 µM | > 100 µM | > 100 µM | > 100 µM | > 100 µM | > 100 µM | > 100 µM | > 100 µM | > 100 µM | > 100 µM | 29.8 µM | 57.4 µM | > 100 µM | > 100 µM | 30.5 µM | 37.8 µM | > 100 µM | > 100 µM | 47.6 µM | > 100 µM
Cc1cc(-c2nnc(/C=C/c3ccc4c(c3)OCO4)o2)n[nH]1 | 47 µM | > 50 µM | 32 µM | 19.1 µM | > 50 µM | > 50 µM | > 50 µM | 39.5 µM | > 50 µM | > 50 µM | 9.64 µM | > 50 µM | 2.99 µM | 2.05 µM | 22 µM | 3.89 µM | 11.9 µM | 3.39 µM | 30 µM | 9.57 µM
CC[C@@]1(OC(=O)C(N)CCCCN)C(=O)OCc2c1cc1n(c2=O)Cc2cc3ccccc3nc2-1 (some centres not stated) | > 100 µM | 2.7 µM | 0.883 µM | 0.115 µM | 0.935 µM | 0.158 µM | 0.282 µM | 0.13 µM | 1.63 µM | 2.37 µM |  |  |  |  |  |  |  |  |  | 
